From patent publication US10100001B2, “Adenylyl cyclase inhibitors for neuropathic and inflammatory pain” (Purdue Research Foundation, priority 2015, dated 2018)

Target: T1, AC1 (Homo sapiens, UniProt Q08828)
T1 construct: expressed in transfected cells
Test: Inhibition of A23187-mediated (Ca2+-stimulated) cAMP accumulation in HEK cells stably expressing AC1
Type: cell-based
Details: for inhibition at 4 µM / inhibition at 40 µM: HEK293, read-out: AC1 Inhibition Percentage; for inhibition at 4 µM: 4 μM compound; for inhibition at 40 µM: 40 μM compound; for IC50: HEK cells stably expressing AC1, inhibitors 30 min, then 3 μM A23187 with IBMX, average and S.E.M. of at least three independent experiments, read-out: IC50 for inhibition of the A23187-mediated cAMP response of AC1
Procedure: HEK cells stably expressing AC1 were treated with inhibitors for 30 min, and subsequently incubated with 3 μM A23187 in the presence of 2 mM IBMX. Data represent the average and S.E.M. of at least three independent experiments.
A23187 is a Ca2+ ionophore, which promotes Ca2+ binding to calmodulin in the cells and, subsequent stimulation of AC1.
HEK (human embryonic kidney) cells stably expressing human AC1, were cultured in Dubelcco's Modified Eagle Medium (Life Technologies, Grand Island, N.Y.) supplemented with 5% bovine calf serum (Hyclone, Logan, Utah), 5% fetal clone I (Hyclone, Logan, Utah), Antibiotic-Antimycotic (Life Technologies, Grand Island, N.Y.), and G418 (Invivogen, San Diego, Calif.). The cells were grown to confluency in 15 cm disses, harvested using Cell Dissociation Buffer (Life Technologies, Grand Island, N.Y.), and resuspended in 4 ml of fetal bovine serum (Hyclone, Logan, Utah) containing 10% dimethyl sulfoxide (Sigma-Aldrich, St. Louis, Mo.). 1 ml of cell suspension was added to cryovials that were incubated overnight at −80° C. in a CoolCell device (BioCision, Larkspur, Calif.) for cryopreservation. On the following day, cryovials were stored in liquid N2 until the assay day.
Cryopreserved HEK-AC1 cells were thawed in a 37° C. water-bath, resuspended in 10 ml optiMEM (Life Technologies, Grand Island, N.Y.) and centrifuged at 500×g for 5 min. The cells were resuspended in 10 ml optiMEM and the centrifugation step was repeated. Cells were then resuspended in 1 ml optiMEM and counted using a Countess automated cell counter (Life Technologies, Grand Island, N.Y.). Cells were added to a white, flat bottom, low-volume, tissue culture-treated 384 well plate (PerkinElmer, Shelton, Conn.) at a final density of 2500 cells/well. The plate was centrifuged for 1 min at 100×g and incubated in a 37° C. humidified incubator for 1 h. […] Following this incubation A23187 (Sigma-Aldrich, St. Louis, Mo.) (3 μM final concentration) containing 3-isobutyl-1-methylxanthine (Sigma-Aldrich, St. Louis, Mo.) (0.5 mM final concentration) was added. The plate was centrifuged for 1 min at 100×g and incubated at room temperature for 1 h. Cyclic AMP accumulation was measured using Cisbio's dynamic 2 kit (Cisbio Bioassays, Bedford, Mass.) according to the manufacturer's instructions. Plates were analyzed for fluorescent emissions at 620 nm and 665 nm using 330 nm as the excitation wavelength in a Cytation 3 Cell Imaging Multi-Mode Reader (Biotek, Winooski, Vt.), and ratiometric analysis was carried out by dividing the 665 nm emissions by the 620 nm emissions to extrapolate the cAMP concentrations from a cAMP standard curve. The data represent the average of at least three independent experiments ran in duplicate.

T1 sequence (Q08828 whole entry): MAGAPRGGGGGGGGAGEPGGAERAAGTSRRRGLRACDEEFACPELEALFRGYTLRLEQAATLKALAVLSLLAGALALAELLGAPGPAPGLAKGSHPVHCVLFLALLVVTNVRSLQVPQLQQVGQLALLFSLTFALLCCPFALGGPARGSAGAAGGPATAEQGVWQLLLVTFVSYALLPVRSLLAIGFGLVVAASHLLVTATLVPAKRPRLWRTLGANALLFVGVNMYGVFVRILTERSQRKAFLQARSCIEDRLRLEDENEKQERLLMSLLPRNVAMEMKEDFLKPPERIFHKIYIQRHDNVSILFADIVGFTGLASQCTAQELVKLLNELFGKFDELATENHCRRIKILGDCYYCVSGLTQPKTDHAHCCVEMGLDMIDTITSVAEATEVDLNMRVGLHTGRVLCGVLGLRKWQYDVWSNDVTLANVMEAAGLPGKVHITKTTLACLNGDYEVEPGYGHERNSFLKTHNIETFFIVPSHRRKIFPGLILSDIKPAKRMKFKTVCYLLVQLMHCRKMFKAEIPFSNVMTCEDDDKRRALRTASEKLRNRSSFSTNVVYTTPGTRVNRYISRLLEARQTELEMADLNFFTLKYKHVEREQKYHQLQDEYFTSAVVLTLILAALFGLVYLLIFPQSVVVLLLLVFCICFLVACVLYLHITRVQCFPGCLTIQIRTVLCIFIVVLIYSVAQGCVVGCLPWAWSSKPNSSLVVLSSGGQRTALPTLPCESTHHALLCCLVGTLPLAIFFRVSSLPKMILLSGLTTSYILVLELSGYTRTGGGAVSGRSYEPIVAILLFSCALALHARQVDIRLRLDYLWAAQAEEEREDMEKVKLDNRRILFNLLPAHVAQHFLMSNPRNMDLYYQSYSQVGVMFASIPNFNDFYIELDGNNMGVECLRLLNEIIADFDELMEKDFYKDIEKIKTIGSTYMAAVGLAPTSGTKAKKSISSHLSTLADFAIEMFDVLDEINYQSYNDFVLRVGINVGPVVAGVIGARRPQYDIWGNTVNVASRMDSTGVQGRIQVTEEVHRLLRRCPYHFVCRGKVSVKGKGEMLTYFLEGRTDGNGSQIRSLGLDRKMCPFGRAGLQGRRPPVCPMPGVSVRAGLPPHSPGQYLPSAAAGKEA

Compound | inhibition at 4 µM [%] | inhibition at 40 µM [%] | IC50 [µM]
CN(C/C=C/c1ccccc1)Cc1cccc2ccccc12 [Compound 1, (E)-N-methyl-N-(naphthalen-1-ylmethyl)-3-phenylprop-2-en-1-amine, reference compound] | 4 | 83 | 
Fc1ccc(C(c2ccc(F)cc2)N2CCN(C/C=C/c3ccccc3)CC2)cc1 [Compound 3, 1-(bis(4-fluorophenyl)methyl)-4-cinnamylpiperazine, reference compound] | 35 | 97 | 
C(=C\c1ccccc1)/CN(CCc1c[nH]c2ccccc12)Cc1ccccc1 [Compound 7aa, (E)-N-(2-(1H-indol-3-yl)ethyl)-N-benzyl-3-phenylprop-2-en-1-amine] | 41 | 92 | 9.92
Cc1ccc(/C=C/CN(CCc2c[nH]c3ccccc23)Cc2ccccc2)cc1 [Compound 7ab, (E)-N-(2-(1H-indol-3-yl)ethyl)-N-benzyl-3-p-tolylprop-2-en-1-amine] | 20 | 91 | 
Cc1cccc(/C=C/CN(CCc2c[nH]c3ccccc23)Cc2ccccc2)c1 [Compound 7ac, (E)-N-(2-(1H-indol-3-yl)ethyl)-N-benzyl-3-m-tolylprop-2-en-1-amine] | 18 | 93 | 
Ic1ccc(/C=C/CN(CCc2c[nH]c3ccccc23)Cc2ccccc2)cc1 [Compound 7ad, (E)-N-(2-(1H-indol-3-yl)ethyl)-N-benzyl-3-(4-iodophenyl)prop-2-en-1-amine] | 59 | 93 | 10.2
Fc1ccc(/C=C/CN(CCc2c[nH]c3ccccc23)Cc2ccccc2)cc1 [Compound 7ae, (E)-N-(2-(1H-indol-3-yl)ethyl)-N-benzyl-3-(4-fluorophenyl)prop-2-en-1-amine] | 47 | 91 | 12.9
Clc1ccc(/C=C/CN(CCc2c[nH]c3ccccc23)Cc2ccccc2)cc1 [Compound 7af, (E)-N-(2-(1H-indol-3-yl)ethyl)-N-benzyl-3-(4-chlorophenyl)prop-2-en-1-amine] | 30 | 98 | 
Brc1ccc(/C=C/CN(CCc2c[nH]c3ccccc23)Cc2ccccc2)cc1 [Compound 7ag, (E)-N-(2-(1H-indol-3-yl)ethyl)-N-benzyl-3-(4-bromophenyl)prop-2-en-1-amine] | 57 | 96 | 6.91
FC(F)(F)c1ccc(/C=C/CN(CCc2c[nH]c3ccccc23)Cc2ccccc2)cc1 [Compound 7ah, (E)-N-(2-(1H-indol-3-yl)ethyl)-N-benzyl-3-(4-(trifluoromethyl)phenyl)prop-2-en-1-amine] | 24 | 96 | 
CCOC(=O)c1ccc(/C=C/CN(CCc2c[nH]c3ccccc23)Cc2ccccc2)cc1 [Compound 7ai, (E)-ethyl 4-(3-((2-(1H-indol-3-yl)ethyl)(benzyl)amino)prop-1-enyl)benzoate] | 36 | 99 | 
COc1ccc(CN(C/C=C/c2ccccc2)CCc2c[nH]c3ccccc23)cc1 [Compound 7ba, (E)-N-(2-(1H-indol-3-yl)ethyl)-N-(4-methoxybenzyl)-3-phenylprop-2-en-1-amine] | 34 | 98 | 
Fc1ccc(CN(C/C=C/c2ccccc2)CCc2c[nH]c3ccccc23)cc1 [Compound 7bb, (E)-N-(2-(1H-indol-3-yl)ethyl)-N-(4-fluorobenzyl)-3-phenylprop-2-en-1-amine] | 31 | 96 | 
O=[N+]([O-])c1ccc(CN(C/C=C/c2ccccc2)CCc2c[nH]c3ccccc23)cc1 [Compound 7bc, (E)-N-(2-(1H-indol-3-yl)ethyl)-N-(4-nitrobenzyl)-3-phenylprop-2-en-1-amine] | 29 | 88 | 
C(=C\c1ccccc1)/CN(CCc1c[nH]c2ccccc12)Cc1cccc2ccccc12 [Compound 7c, (E)-N-(2-(1H-indol-3-yl)ethyl)-N-(naphthalen-1-ylmethyl)-3-phenylprop-2-en-1-amine] | 39 | 86 | 8.95
Cn1cc(CCN(C/C=C/c2ccccc2)Cc2ccccc2)c2ccccc21 [Compound 7d, (E)-N-benzyl-N-(2-(1-methyl-1H-indol-3-yl)ethyl)-3-phenylprop-2-en-1-amine] | -8 | 101 | 

Compound | inhibition at 4 µM [%] | inhibition at 40 µM [%] | IC50 [µM]
C(=C\c1ccccc1)/CN(Cc1ccccc1)Cc1ccccc1 [Compound 7e, (E)-N,N-dibenzyl-3-phenylprop-2-en-1-amine] | -9 | 75 | 
Cc1ccc(/C=C/CN(C)Cc2cccc3ccccc23)cc1 [Compound 7fa, (E)-N-methyl-N-(naphthalen-1-ylmethyl)-3-p-tolylprop-2-en-1-amine] | -26 | 95 | 
Cc1cccc(/C=C/CN(C)Cc2cccc3ccccc23)c1 [Compound 7fb, (E)-N-methyl-N-(naphthalen-1-ylmethyl)-3-m-tolylprop-2-en-1-amine] | 2 | 63 | 
Cc1ccccc1/C=C/CN(C)Cc1cccc2ccccc12 [Compound 7fc, (E)-N-methyl-N-(naphthalen-1-ylmethyl)-3-o-tolylprop-2-en-1-amine] | -71 | 77 | 
CN(C/C=C/c1ccc(I)cc1)Cc1cccc2ccccc12 [Compound 7fd, (E)-3-(4-iodophenyl)-N-methyl-N-(naphthalen-1-ylmethyl)prop-2-en-1-amine] | 11 | 94 | 
CN(C/C=C/c1ccc(F)cc1)Cc1cccc2ccccc12 [Compound 7fe, (E)-3-(4-fluorophenyl)-N-methyl-N-(naphthalen-1-ylmethyl)prop-2-en-1-amine] | 4 | 85 | 
CN(C/C=C/c1ccc(Cl)cc1)Cc1cccc2ccccc12 [Compound 7ff, (E)-3-(4-chlorophenyl)-N-methyl-N-(naphthalen-1-ylmethyl)prop-2-en-1-amine] | 37 | 91 | 
CN(C/C=C/c1ccc(Br)cc1)Cc1cccc2ccccc12 [Compound 7fg, (E)-3-(4-bromophenyl)-N-methyl-N-(naphthalen-1-ylmethyl)prop-2-en-1-amine] | -61 | 93 | 
CN(C/C=C/c1ccc(C(F)(F)F)cc1)Cc1cccc2ccccc12 [Compound 7fh, (E)-N-methyl-N-(naphthalen-1-ylmethyl)-3-(4-(trifluoromethyl)phenyl)prop-2-en-1-amine] | 30 | 87 | 
CCOC(=O)c1ccc(/C=C/CN(C)Cc2cccc3ccccc23)cc1 [Compound 7fi, (E)-ethyl 4-(3-(methyl(naphthalen-1-ylmethyl)amino)prop-1-enyl)benzoate] | -40 | 85 | 
COc1ccc(/C=C/CN(C)Cc2cccc3ccccc23)cc1 [Compound 7fj, (E)-3-(4-methoxyphenyl)-N-methyl-N-(naphthalen-1-ylmethyl)prop-2-en-1-amine] | -14 | 82 | 
COc1ccc(/C=C/CN(C)Cc2cccc3ccccc23)cc1OC [Compound 7fk, (E)-3-(3,4-dimethoxyphenyl)-N-methyl-N-(naphthalen-1-ylmethyl)prop-2-en-1-amine] | -14 | 33 | 
CN(C/C=C/c1cccc([N+](=O)[O-])c1)Cc1cccc2ccccc12 [Compound 7fl, (E)-N-methyl-N-(naphthalen-1-ylmethyl)-3-(3-nitrophenyl)prop-2-en-1-amine] | -28 | 62 | 
COC(=O)CCCN(C/C=C/c1ccccc1)Cc1ccc(F)cc1 [Compound 7ga, methyl 4-(cinnamyl(4-fluorobenzyl)amino)butanoate] | 20 | 67 | 
COC(=O)CCCN(C/C=C/c1ccc(C)cc1)Cc1ccc(F)cc1 [Compound 7gb, (E)-methyl 4-((4-fluorobenzyl)(3-p-tolylallyl)amino)butanoate] | -3 | 64 | 
